The values below come from US6753010B2, “Soft gelatin capsule containing angelica oil” (Shandong Luye Phamaceutical Co., Ltd., priority 2000, dated 2004).

The nature of this data set: Influence of temperature on ligustilide content in angelica essential oil (gas chromatography, internal standard diethyl phthalate). The data set is classed as physicochemical. Particulars: for Content of ligustilide: in angelica essential oil, sealed vial. On the procedure:
Gas chromatograph (Shimadzu GC-14B); Diethyl phthalate (Shanghai First Reagents Factory, purity is 99.7% tested by gas chromatography with area normalization method); angelica essential oil (991007).
Test group: Five portions of angelica essential oil (30 μl each) are placed separately in five 7 ml-sealing vials numbered with 0, 1, 2, 3 and 4, weighed accurately and sealed. The vials are laid in an oven (100° C.) and the samples are taken out of the oven after 0, 1, 2, 3 and 4 hours respectively. Anabout 16 μl of diethyl phthalate as the internal standard is added. Then the samples are weighed accurately and diluted with ca. 1 ml of ethyl alcohol additionally. According to the method in the item of ? Purity Test ? under “Protocol and Remarks of the Quality standard for Angelica essential oil” the content of ligustilide is determined.
Control group: Five portions of angelica essential oil (30 μl each) are placed separately in five 7 ml-sealing vials numbered with 0′, 1′, 2′, 3′ and 4′, weighed accurately and sealed. The vials are laid aside under room temperature of 20° C. and about 16 μl of diethyl phthalate as internal standard is added after 0, 1, 2, 3 and 4 hours respectively. […] with ca. 1 ml of ethyl alcohol additionally. According to the method in the item of ? Purity Test ? under “Protocol and Remarks of the Quality standard for Angelica essential oil”, the content of ligustilide is determined.

Molecules are shown by their SMILES.

Consider `CCC/C=C1\OC(=O)C2=C1CCC=C2` [ligustilide], for which the “Stability of ligustilide content (in words)” value by setting is: (in angelica essential oil under room temperature (20° C.)) “relatively stable”; (in angelica essential oil under temperature of 100° C.) “decreases gradually”. For the same compound, the Content of ligustilide was 55.50% (higher temperature (100° C.), 0 hour); 41.89% (higher temperature (100° C.), 1 hour); 32.74% (higher temperature (100° C.), 2 hours); 21.89% (higher temperature (100° C.), 3 hours); 12.00% (higher temperature (100° C.), 4 hours); 55.5% (room temperature (20° C.), 0 hour). Further, the Content of ligustilide by setting is: (room temperature (20° C.), 1 hour) 56.01%; (room temperature (20° C.), 2 hours) 56.66%; (room temperature (20° C.), 3 hours) 55.78%; (room temperature (20° C.), 4 hours) 55.39%.
